According to BindingDB's records for doi:10.1016/j.chembiol.2007.10.010 (University of Munich, 2007):

Target: T1, 3-phosphoinositide-dependent protein kinase 1 (Homo sapiens, UniProt O15530)
T1 sequence (O15530 whole entry): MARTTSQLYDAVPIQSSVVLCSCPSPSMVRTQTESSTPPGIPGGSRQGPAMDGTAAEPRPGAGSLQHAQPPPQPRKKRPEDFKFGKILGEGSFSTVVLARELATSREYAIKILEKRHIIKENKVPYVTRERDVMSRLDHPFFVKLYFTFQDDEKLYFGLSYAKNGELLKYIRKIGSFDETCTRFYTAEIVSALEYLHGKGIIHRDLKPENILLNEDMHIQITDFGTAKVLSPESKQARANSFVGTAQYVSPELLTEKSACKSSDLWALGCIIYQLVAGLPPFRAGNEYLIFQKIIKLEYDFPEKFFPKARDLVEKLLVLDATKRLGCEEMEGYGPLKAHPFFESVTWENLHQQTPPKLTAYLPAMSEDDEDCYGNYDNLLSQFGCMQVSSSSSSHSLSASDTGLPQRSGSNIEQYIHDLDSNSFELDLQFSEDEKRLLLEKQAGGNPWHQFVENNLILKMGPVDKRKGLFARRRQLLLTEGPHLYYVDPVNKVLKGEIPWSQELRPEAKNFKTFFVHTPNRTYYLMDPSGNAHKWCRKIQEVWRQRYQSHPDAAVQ
Experiment: In Vitro Kinase Assay
Details: pH 7.5; 30 °C
Excerpt: PDK1 protein kinase was expressed in Sf9 insect cells as human recombinant GST-fusion protein by means of the baculovirus expression systems. Protein kinase assay (33PanQinase assay) was used for measuring the kinase activity of PDK1.

| SMILES | IC50 [µM] |
| --- | --- |
| O=Nc1c(C2C(=O)Nc3ccc(Br)cc32)[nH]c2ccccc12 (configuration not stated) [5BIO] | > 100 |
| O=Nc1c(C2C(=O)Nc3ccccc32)[nH]c2ccccc12 (configuration not stated) [Indirubin-3 -monoxime] | > 100 |
